The values that follow come from US7345078B2, “NF-κB inhibitors and uses thereof” (The Board of Trustees of Michigan State University, priority 2002, dated 2008).

The subject of one data set is Micrococcus luteus. The data set is described as follows: standardized disk diffusion method (zone diameter / MIC). It counts as cell-based. As to conditions: at the amount printed in the same cell. Here is the method:
Compounds 4, 6, and 7 were tested for the inhibition of bacteria. A total of 9 bacterial strains were screened. The following Gram-negative and Gram-positive bacteria were included: Staphylococcus aureus, Enterobacter aerogenes, Esherichia coli, Klebsiella pneumonia, Pseudomonas aeruginosa, Serratia marcescens, Bacillus cerius, Bacillus subtillus and micrococcus luteus. Bacterial isolates were removed from storage, streaked on to nutrient agar plates and incubated for 18-24 hours at 35° C. A working bacterial suspension was prepared by suspending 3-5 isolated colonies in 5 mL saline solution. The turbidity of this suspension was carefully adjusted photometrically to equal that of a 0.5 McFarland standard. The zone diameters were determined by a standardized disk diffusion method using cation-supplemented Mueller-Hinton agar according to NCCLS guidelines (National Committee for Clinical Laboratory Standards. Methods for dilution Antimicrobial Susceptibility Tests for Bacteria that Grow Aerobically. Fifth Edition: Approved Standard M7-A5. Wayne, Pa.: NCCLS (2000)). Minimum inhibitory concentrations (MICs) were considered the lowest concentration that gave a clear zone of inhibition. The inoculated agar plates were incubated for 16-20 hours at 35° C. in ambient air. The diameters of the zones were read in millimeters.
(In general: In agar diffusion tests the substance spreads into inoculated agar from a disc or well.)

For data set [1], the target named is T1, NF-κB (Homo sapiens, UniProt P19838+Q04206). The data set is described as follows: EMSA of nuclear NF-κB-DNA binding in nuclear extracts of PMA-stimulated Jurkat leukemia T-cells. It counts as cell-based. Details: endogenous in cells; host or cells: Jurkat leukemia T-cells, clone E6-1 (ATCC), PMA-stimulated; nuclear extract. The conditions noted are these: compound 0.1 μM (100 nM). The method, then: (§1) All compounds were evaluated for their potential anti-inflammatory activity by examining the activity of NF-κB in vitro in nuclear extracts using the procedure from Breton and Charbot-Fletcher (Breton et al., J. Pharmacol. Exp. Ther. 282 459-466 (1997)). […] The Jurkat cells (1×10^7 cells/mL) are subsequently treated with various concentrations of imidazoline for 30 minutes at 37° C. followed by PMA stimulation (5.0 ng/mL) for an additional 5 hours. Nuclear extracts are incubated for 20 minutes with a double stranded Cy3 labeled NF-κB consensus oligonucleotide, 5′-[…]-3′ (SEQ ID NO:1) at room temperature. The crude mixture is loaded on a 5% non-denaturing polyacrylamide gel prepared in 1×Tris borate/EDTA buffer and electrophoresed at 200V for 2 hours. After electrophoresis the gel is analyzed using a phosphorimager (Biorad FX PLUS) for detection of the NF-κB-DNA binding.
T1 sequence (Q04206 whole entry): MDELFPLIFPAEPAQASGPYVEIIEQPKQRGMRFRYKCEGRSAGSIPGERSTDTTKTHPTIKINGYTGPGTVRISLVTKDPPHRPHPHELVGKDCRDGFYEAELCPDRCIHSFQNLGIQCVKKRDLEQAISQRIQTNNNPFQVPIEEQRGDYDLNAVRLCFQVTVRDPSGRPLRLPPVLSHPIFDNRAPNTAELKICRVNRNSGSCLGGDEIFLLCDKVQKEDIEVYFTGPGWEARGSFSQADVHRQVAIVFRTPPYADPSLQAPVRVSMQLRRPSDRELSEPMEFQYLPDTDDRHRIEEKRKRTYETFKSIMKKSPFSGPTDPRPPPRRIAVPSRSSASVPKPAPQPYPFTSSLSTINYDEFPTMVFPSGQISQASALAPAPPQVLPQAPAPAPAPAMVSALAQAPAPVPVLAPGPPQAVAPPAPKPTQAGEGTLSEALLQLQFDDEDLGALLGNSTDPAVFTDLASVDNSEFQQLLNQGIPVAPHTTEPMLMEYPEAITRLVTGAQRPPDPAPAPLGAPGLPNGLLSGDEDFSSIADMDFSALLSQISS
T1 sequence (P19838 1-433 limits assumed): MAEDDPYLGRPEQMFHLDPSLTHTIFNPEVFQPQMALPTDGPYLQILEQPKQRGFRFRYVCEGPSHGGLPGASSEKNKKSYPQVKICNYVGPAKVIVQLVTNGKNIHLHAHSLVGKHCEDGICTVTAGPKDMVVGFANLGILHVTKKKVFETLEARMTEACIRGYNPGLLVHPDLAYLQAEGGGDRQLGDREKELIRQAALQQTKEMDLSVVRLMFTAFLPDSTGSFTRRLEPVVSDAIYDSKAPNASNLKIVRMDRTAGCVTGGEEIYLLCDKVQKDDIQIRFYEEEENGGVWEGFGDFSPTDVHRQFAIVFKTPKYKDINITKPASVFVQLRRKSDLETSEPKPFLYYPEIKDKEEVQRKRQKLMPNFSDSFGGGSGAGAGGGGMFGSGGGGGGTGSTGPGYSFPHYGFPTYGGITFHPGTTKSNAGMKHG
EMSA assay for NF-κB-DNA binding was as follows. […] The Jurkat cells (1×10^6 cells/mL) were subsequently treated with various concentrations of the compounds for 30 minutes at 37° C. and 5% CO2 followed by PMA (50 ng/mL) and PHA ([…]) stimulation for an additional 30 minutes. The cells were harvested by centrifugation, washed in ice cold PBS and the nuclear extracts were prepared as previously described (Dignam, et al., Nucl. Acids Res 11: 1475-1489 (1983)). The protein concentration of the extracts was determined according to the Method of Bradford (1976) with BioRad reagents. Nuclear extracts are incubated for 20 minutes at room temperature with a double stranded Cy3 labeled NF-kB consensus oligonucleotide, 5′-[…] CCAGGC-3′ (SEQ ID NO:1). The binding mixture ([…]) contained 10 mM HEPES-NaOH pH 7.9, 4 mM tris-HCl, pH 7.9, 6.0 mM KCl, 1 mM EDTA, 1 mM DTT, 10% glycerol, 0.3 mg/mL bovide serum albumin and […] of poly (dI.dC). The binding mixtures ([…] of nuclear extract protein) were incubated for 20 minutes at room temrperature with 0.16 pmol of Cy3 labeled oligonucleotide. The mixture was loaded on a 4% polyacrylamide gel prepared in 1× tris borate/EDTA buffer and was electrophoresed at 200 V for 20 minutes. After electrophoresis the gel was analyzed using a phosphorimager (Biorad FX plus) for detection of the NF-kB—DNA binding.
In general terms: A gel shift assay detects complexes by their altered migration in electrophoresis.

Data set [2] deals with T1, NF-κB. The data set is described as follows: IC50 values in Mammalian Jurkat cells Leukemia T cells. It counts as cell-based. Details: endogenous in cells; host or cells: Jurkat leukemia T-cells, clone E6-1 (ATCC), PMA-stimulated; nuclear extract. As to conditions: concentration at which 50% of the protein/enzyme is inhibited in cells. Here is the method: as §1
IC50 values in Mammalian Jurkat cells Leukemia T cells: IC50 value is defined as the concentration of compounds at which 50% of the protein/enzyme is inhibited in cells (Table 3).

Another data set relates to RIF-1 murine tumor. Put plainly: RIF-1 murine model of tumor growth delay. It counts as in vivo, mice. The method, then: Tumor cells were injected, bilaterally, into the backs of mice. When tumors reached 100 mm^3, the mice were treated with an intraperitoneal injection of the compound. Tumor volumes were measured 3 times a week until they reached 4 times the size they were on the first treatment day. Data is recorded as “Days to 4×’ or ratio of ‘Days to 4×” of the treated over untreated controls.

Data set [3] deals with NF-κB p50/p65 heterodimer. Put plainly: p65-ELISA assay of NF-κB nuclear translocation in Jurkat cells. It counts as cell-based, Human. The conditions noted are these: concentrations 100 ηM-5.0 μM, 30 minutes prior to PMA activation. Here is the method: Inhibition of the nuclear translocation of the p50/p65 heterodimer of NF-κB was confirmed by a p65-ELISA assay. Cells were treated with the PDTC (positive control-reported to inhibit IκB phosphorylation thus inhibiting NF-κB translocation), and imidazoline 32, 30 minutes prior to PMA activation, followed by the isolation of the nuclear extract after a 30 minute incubation period.
The quantity of p65/p50 heterodimer that has translocated into the nucleus was measured using a NF-κB p65 sandwich ELISA assay (Imgenex Corp.). Jurkat cells were grown to 2×10^6 cells/mL and treated with 50 ng/mL PMA and 1 μg/mL PMA/PHA and incubated at 37° C., 5% CO2. The cells are harvested after 30 minutes and nuclear extracts are prepared as previously described by Dignam and coworkers (Dignam, et al., Nucl. Acids Res 11: 1475-1489 (1983)). The NF-κB p65 sandwich ELISA kit was then used to monitor and quantify p65 translocation into the nucleus according to the manufacturers protocol.
A general note: In an ELISA, binding on a coated surface is turned into a signal by an enzyme label.

Data set [4] has as its target T1, NF-κB. Put plainly: EMSA of camptothecin activated NF-κB in CEM leukemia T-cells. It counts as cell-based. Also noted: endogenous in cells; nuclear extract. As to conditions: for inhibition of camptothecin induced NF-κB nuclear binding: CPT 0.1 μM, 32 at 10 μM to 10 nM, PDTC 5 μM.
Experimental: CEM cells were incubated with and without varying concentrations of camptothecin (CPT). Positive controls included PMA/PHA activation (FIG. 11, lane 2). Lane 3 included a positive control using PMA/PHA activation followed by the treatment of the extract with a NF-κB p65 antibody to unambiguously identify the NF-κB/DNA complex.
CEM cells were treated with various concentration of imidazoline 32, 30 minutes prior to activation by camptothecin (0.1 μM). […] Control lanes include: DNA only (lane 1), PMA/PHA activated NF-κB (lane 2), PMA/PHA activated NF-κB treated with a p65 antibody, which provide a supershift (lane 3) and the unactivated control (lane 4).
EMSA assay for NF-κB-DNA binding was as follows. […] The cells were harvested by centrifugation, washed in ice cold PBS and the nuclear extracts were prepared as previously described (Dignam, et al., Nucl. Acids Res 11: 1475-1489 (1983)). The protein concentration of the extracts was determined according to the Method of Bradford (1976) with BioRad reagents. Nuclear extracts are incubated for 20 minutes at room temperature with a double stranded Cy3 labeled NF-kB consensus oligonucleotide, 5′-[sequence] […] The binding mixture (25 mL) contained 10 mM HEPES-NaOH pH 7.9, 4 mM tris-HCl, pH 7.9, 6.0 mM KCl, 1 mM EDTA, 1 mM DTT, 10% glycerol, 0.3 mg/mL bovide serum albumin and 1 mg of poly (dI.dC). The binding mixtures (10 mg of nuclear extract protein) were incubated for 20 minutes at room temrperature with 0.16 pmol of Cy3 labeled oligonucleotide. The mixture was loaded on a 4% polyacrylamide gel prepared in 1× tris borate/EDTA buffer and was electrophoresed at 200 V for 20 minutes. After electrophoresis the gel was analyzed using a phosphorimager (Biorad FX plus) for detection of the NF-kB—DNA binding.
For another data set, the system named is CEM cells. Here is the method:
Imidazolines 28-33 were evaluated for their ability to enhance the activity of camptothecin in CEM cells. Induction of apoptosis is the hallmark of most chemotherapeutic agents including camptothecin. The systematic disassembly of apoptotic cells is accomplished by active caspases (Thornberry et al., Nature 356: 768-774 (1992); Nicholson et al., Trends Biochem. Sci. 22: 299-306 (1997)). A standard apoptosis assay is Promega's APO-ONE homogeneous caspase-3/7 assay, which takes advantage of this caspase activity to directly quantify the induction of apoptosis in cells (Thornberry et al., Nature 356: 768-774 (1992); Nicholson et al., Trends Biochem. Sci. 22: 299-306 (1997)). According to the hypothesis that NF-κB inhibition should enhance the activity of chemotherapeutic agents via the inhibition of anti-apoptotic signaling pathway—thus enhancement of apoptosis—(Boland, Biochem Soc Trans 29: 674-678 (2001); Chiao et al., Cancer 95: 1696-1705 (2002)), we investigated the effects of the imidazolines using this caspase-3/7 assay. This assay quantifies the level of apoptotic cell death induced by camptothecin with and without the imidazolines and will establish the direct level of enhancement of apoptosis by camptothecin.
Induction of apoptosis using caspase 3/7 assay was as follows. CEM cells (CCRF-CEM); Amer. Type Culture Collection, Rockville, Md.) were grown in RPMI-1640 Media (Gibco-BRL, Rockville, Md.) supplemented with 10% fetal bovine serum, penicillin (614 ηg/mL), streptomycin (10 μg/mL) and hepes buffer, pH 7.2 at 37° C., 5% CO2. DMSO was used as the vector for all drugs and added in the control experiments. Cell cultures were treated with 1 μM, 0.1 μM or 10 nM of the imidazolines and allowed to incubate at 37° C., 5% CO2. An aliquote was transferred to a 96-well plate and mixed with an equal volume of Apo-ONE™ Homogenous Caspase-3/7 assay (Promega Corporation) reagent. The contents of the plate were gently mixed and allowed to incubate for 1 hour. The fluorescence of each well was then measured on a Molecular Imager FX Pro at 532 nm. All reported data was the average of two independent experiments unless otherwise indicated.

For data set [5] the following is noted: IP, doses 5.0 and 50 mg/kg. The method, then: Prior to the combinatorial studies, the toxicity of the compounds was determined in the mouse model. […] In short, the drugs are dissolved in DMSO and 100 μL given to the mice on day 0 by intraperitoneal injection (IP). […] Weight and death were the two measures of toxicity.

Structures are written as SMILES. “Also recorded” adds a separate entry of the source. Where two headings read alike, the source gives them in different places.

Usually inhibition stands for how much of the control response was suppressed. Read a low inhibition as little suppression. Broadly, the IC50 is the concentration that inhibits the measured activity by half. A lower IC50 goes with inhibition by little substance. In the case of `C[C@]1(C(=O)O)N=C(c2ccccc2)N[C@H]1c1ccccc1` (racemic) [Compound 7, Dl (3S,4S)-4-Methyl-2,5-diphenyl-4,5-dihydro-1H-imidazole-4-carboxylic acid], in the data set on Micrococcus luteus, the “zone of inhibition diameter” value turned out to be 10 mm. The same compound returned an inhibition at 0.1 µM on NF-κB [1] of 38%. Also, half-maximal inhibition against NF-κB [2] (IC50) was put at 20 nM.

Turning to `C[C@]1(C(=O)O)N=C(c2ccccc2)N(Cc2ccccc2)[C@H]1c1ccncc1` (racemic) [Compound 6, Dl-(3S,4S)-1-Benzyl-4-methyl-2-phenyl-5-pyridin-4yl-4,5-dihydro-1H-imidazole-4-carboxylic acid], in the data set with Micrococcus luteus, the “zone of inhibition diameter” value worked out at 10 mm. For the same compound, the “Days Delay (tumor growth delay)” value with RIF-1 murine tumor (IP, imidazoline 100 mg/kg, cis-platin 4 mg/kg, camptothecin 6 mg/kg) was -0.41 days. Also, the “Median (days to 4x)” value in the data set with RIF-1 murine tumor (IP, imidazoline 100 mg/kg, cis-platin 4 mg/kg, camptothecin 6 mg/kg, untreated 7.0) came to 6.6 days. Moreover, in the data set with RIF-1 murine tumor (IP, imidazoline 100 mg/kg, cis-platin 4 mg/kg, camptothecin 6 mg/kg, untreated 7.3 ± 0.6), the “Days to 4x (Ave ±SE)” value is reported as 6.6 ± 0.3 days. Moreover, the chemopotentiation of camptothecin result in the data set with RIF-1 murine tumor (combinational treatment with camptothecin (CPT), RIF-1 tumors in mice) is given as “significant chemopotentiation”. In the data set with RIF-1 murine tumor (combinational treatment with cis-platin (CDDP), RIF-1 tumors in mice), the chemopotentiation of cis-platin result was “significant chemopotentiation”. Further, the inhibition at 0.1 µM at NF-κB [1] stood at 84%. At NF-κB [2], this compound showed an IC50 of 300 nM.

Regarding `N.S=C(S)N1CCCC1` [PDTC, reference compound], the “inhibition of NF-κB p50/p65 heterodimer nuclear translocation” value in data set [3] was “significant inhibition; also recorded: inhibited NF-κB translocation”. For the same compound, on NF-κB [4], the “inhibition of camptothecin induced NF-κB nuclear binding” value is recorded as “decrease of binding”.

Turning to `C[C@]1(C(=O)O)N=C(c2ccccc2)N(c2ccc(F)cc2)[C@H]1c1ccccc1` (racemic) [Compound 28, dl-(4S,5S)-1-(4-Fluorophenyl)-4-methyl-2,5-diphenyl-4,5-dihydro-1H-imidazole-4-carboxylic acid], the “Apoptosis (±S.D.)” value in the data set on CEM cells (Compound 1.0 μm alone, T-cells, 48 hour period, cells only = 1.00 (normalized)) came to 1.25 ± 0.18. In addition, the tolerability in mice entry in data set [5] was “well tolerated”.

On to `C[C@]1(C(=O)O)N=C(c2ccccc2)N(Cc2ccccc2)[C@H]1c1ccccc1` (racemic) [Compound 33, dl-(4S,5S)-1-Benzyl-4-methyl-2,5-diphenyl-4,5-dihydro-1H-imidazole-4-carboxylic acid], for which the tolerability in mice entry in data set [5] was “well tolerated”.

For `O=C(O)[C@@]1(c2ccccc2)N=C(c2ccccc2)N(Cc2ccccc2)[C@H]1c1ccccc1` (racemic) [Compound 32, dl-(4S,5S)-1-Benzyl-2,4,5-triphenyl-4,5-dihydro-1H-imidazole-4-carboxylic acid], in data set [3], the “inhibition of NF-κB p50/p65 heterodimer nuclear translocation” value was “inhibition of nuclear translocation of NF-κB; also recorded: significantly inhibits”. In addition, the “Apoptosis (±S.D.)” value with CEM cells stood at 1.98 ± 0.0001. Besides, the “chemopotentiation of cis-platin (apoptosis)” value in the data set with CEM cells (CEM cells, 0.1 micromolar cis-platin + 0.1 micromolar 32 versus 1.0 micromolar cis-platin) is on record as “chemopotentiation of cis-platin; also recorded: chemopotentiate cis-platin”. The “induction of apoptosis in combination with camptothecin” value in the data set on CEM cells (CEM cells, CPT 0.1 μM with varying concentrations of imidazoline, 48 hours) is listed as “dose dependent enhancement of apoptosis”. Further, the tolerability in mice entry in data set [5] was “well tolerated”. Moreover, the NF-κB-DNA complex formation result on NF-κB [4] (0.1 μM CPT + 10 μM compound 32 (lane 7 versus lane 5)) was “significant decrease”. Besides, at NF-κB [4], the “inhibition of camptothecin induced NF-κB nuclear binding” value is given as “inhibited camptothecin induced NF-κB nuclear binding in a dose responds manner”.
